Source: US20260306496A1, “CDK2 INHIBITOR PYRAZOLOPYRIMIDINE COMPOUNDS” (ALEKSIA THERAPEUTICS, INC., priority 2023, published 2026)
Where a name gives a salt, the structure may show the parent alone. Read-outs that look alike come from different tables or passages of the source.

Target: CDK2/CCNE1 (Homo sapiens, UniProt P24941)
Assay: CDK2 homogeneous time-resolved fluorescence (HTRF) assay
Format: biochemical
Details: 3 nM CDK2/CCNE1, 1 mM ATP, 50 nM ULight-eIF4E-binding protein 1 (Thr37/46) peptide, 60 min at 23° C.
Protocol: A CDK homogeneous time-resolved fluorescence (HTRF) assay was used to assess the potency of the compounds described herein.
To an untreated 384-well microtiter plate (ProxiPlate) was added 100 nL 100× test compound in DMSO and 5 μL 2×CDK enzyme in assay buffer (50 mM HEPES, 1 mM EGTA, 10 mM MgCl2, 0.01% Tween 20, 2 mM DTT). The plate was centrifuged at 800 RPM for 1 min then incubated for 20 min at 23° C. 2.5 μL per well of 4×ATP and 2.5 μL 4×ULight™-eIF4E-binding protein 1 (Thr37/46) Peptide) substrate were added to all wells. After addition, the plates were centrifuged at 800 RPM for 1 min. The plates were incubated at 23° C. for 60 min. 5 μL per well 3×EDTA solution were added to each well to stop the reaction. 2.5 μL 7×LANCE Ultra Europium-anti-phospho-eTF4E-binding protein 1 (Thr37/46 antibody) were added to each well and the plate was centrifuged for 1 min at 800 RPM. The plate was incubated for 60 min at 23° C. Fluorescence was read at 340 nm excitation and 665 nm emission on an EnVision 2105 fluorescence reader. The final concentrations of reagents in the activity assay were 3 nM CDK2/CCNE1, 1 mM ATP, 50 nM ULight™-eIF4E-binding protein 1 (Thr37/46) Peptide substrate, 1% DMSO, 10 mM EDTA, and 2 nM LANCE Ultra Europium-anti-phospho-eTF4E-binding protein 1 (Thr37/46).
Dose-response titrations were conducted by using an 11-point, three-fold serial dilution scheme typically starting at 1 μM. Signals were reported as fluorescence units at 665 nm or the ratio of fluorescence units at 665 nm/fluorescence units at 615 nm. Signals are referred to below as “Lance signals”.
Using this assay, the IC50 values of example compounds were determined.

[1] = column 25-150 nM, read-out: CDK2/CCNE IC50 25-150 nM
[2] = read-out: CDK2/CCNE IC50 >150 nM
[3] = read-out: CDK2/CCNE IC50 <25 nM

Row | Structure (SMILES) | IC50 [1] | IC50 [2] | also measured
1 | OCc1cc(Nc2ncc3cnn(CC4CCCCC4)c3n2)ccc1O [Compound 55, 4-((1-(cyclohexylmethyl)-1H-pyrazolo[3,4-d]pyrimidin-6-yl)amino)-2-(hydroxymethyl)phenol] | 25 to 150 nM | – | –
2 | C=CS(=O)(=O)c1ncc(Nc2ncc3cnn(CC4CCCCC4)c3n2)cc1Cl [Compound 31, N-(5-chloro-6-(vinylsulfonyl)pyridin-3-yl)-1-(cyclohexylmethyl)-1H-pyrazolo[3,4-d]pyrimidin-6-amine] | – | > 150 nM | –
3 | CS(=O)(=O)c1ccc(Nc2ncc3cnn([C@@H]4CC[C@@H](O)C4)c3n2)cc1 [Compound 50, (1R,3R)-3-(6-((4-(methylsulfonyl)phenyl)amino)-1H-pyrazolo[3,4-d]pyrimidin-1-yl)cyclopentan-1-o1] | 25 to 150 nM | – | –
4 | CS(=O)(=O)c1ccc(Nc2ncc3cnn(C[C@@H]4CCC(=O)N4)c3n2)cc1 [Compound 57, (S)-5-((6-((4-(methylsulfonyl)phenyl)amino)-1H-pyrazolo[3,4-d]pyrimidin-1-yl)methyl)pyrrolidin-2-one] | – | > 150 nM | –
5 | C=CS(=O)(=O)c1ccc(Nc2ncc3cnn(CC4CCCCC4)c3n2)cc1C [Compound 23, 1-(cyclohexylmethyl)-N-(3-methyl-4-(vinylsulfonyl)phenyl)-1H-pyrazolo[3,4-d]pyrimidin-6-amine] | 25 to 150 nM | – | –
6 | Cn1ncc2cc(-n3ncc4cnc(Nc5ccc(S(C)(=O)=O)cc5)nc43)ccc21 [Compound 81, 1-(1-methyl-1H-indazol-5-yl)-N-(4-(methylsulfonyl)phenyl)-1H-pyrazolo[3,4-d]pyrimidin-6-amine] | 25 to 150 nM | – | –
7 | CS(=O)(=O)c1ccc(Nc2ncc3cnn(C4CCC(C#N)CC4)c3n2)cc1 (single isomer, unassigned) [Compound 32, 4-(6-((4-(methylsulfonyl)phenyl)amino)-1H-pyrazolo[3,4-d]pyrimidin-1-yl)cyclohexane-1-carbonitrile] | – | – | IC50 [3]: < 25 nM
8 | CS(=O)(=O)c1ccc(Nc2ncc3cnn([C@@H]4CCC[C@H](C#N)C4)c3n2)cc1 [Compound 52, (1S,3R)-3-(6-((4-(methylsulfonyl)phenyl)amino)-1H-pyrazolo[3,4-d]pyrimidin-1-yl)cyclohexane-1-carbonitrile] | 25 to 150 nM | – | –
9 | CN(C)[C@H]1CC[C@@H](Cn2ncc3cnc(NC4CCN(S(C)(=O)=O)CC4)nc32)CC1 [Compound 56, 1-(((1S,4S)-4-(dimethylamino)cyclohexyl)methyl)-N-(1-(methylsulfonyl)piperidin-4-yl)-1H-pyrazolo[3,4-d]pyrimidin-6-amine] | 25 to 150 nM | – | –
10 | CS(=O)(=O)c1ccc(Nc2ncc3cnn(Cc4ccccc4)c3n2)cc1 [Compound 4, 1-benzyl-N-(4-(methylsulfonyl)phenyl)-1H-pyrazolo[3,4-d]pyrimidin-6-amine] | – | > 150 nM | –
11 | C=CS(=O)(=O)c1ccc(Nc2ncc3cnn(CC4CCCCC4)c3n2)cc1C(F)(F)F [Compound 42, 1-(cyclohexylmethyl)-N-(3-(trifluoromethyl)-4-(vinylsulfonyl)phenyl)-1H-pyrazolo[3,4-d]pyrimidin-6-amine] | 25 to 150 nM | – | –
12 | CS(=O)(=O)c1ccc(Nc2ncc3cnn(CC4CCCCC4)c3n2)cc1F [Compound 80, 1-(cyclohexylmethyl)-N-(3-fluoro-4-(methylsulfonyl)phenyl)-1H-pyrazolo[3,4-d]pyrimidin-6-amine] | – | > 150 nM | –
13 | C=CC(=O)c1ccc(Nc2ncc3cnn(CC4CCCCC4)c3n2)cc1 [Compound 44, 1-(4-((1-(cyclohexylmethyl)-1H-pyrazolo[3,4-d]pyrimidin-6-yl)amino)phenyl)prop-2-en-1-one] | – | > 150 nM | –
14 | O=Cc1cccc(Nc2ncc3cnn(CC4CCCCC4)c3n2)c1 [Compound 26, 3-((1-(cyclohexylmethyl)-1H-pyrazolo[3,4-d]pyrimidin-6-yl)amino)benzaldehyde] | – | – | IC50 [3]: < 25 nM
15 | CS(=O)(=O)c1ccc(Nc2ncc3cnn([C@@H]4CC[C@@H](C#N)C4)c3n2)cc1 [Compound 47, (1R,3R)-3-(6-((4-(methylsulfonyl)phenyl)amino)-1H-pyrazolo[3,4-d]pyrimidin-1-yl)cyclopentane-1-carbonitrile] | – | > 150 nM | –
16 | C=CS(=O)(=O)N1CCC(Nc2ncc3cnn(CC4CCCCC4)c3n2)CC1 [Compound 1, 1-(cyclohexylmethyl)-N-(1-(vinylsulfonyl)piperidin-4-yl)-1H-pyrazolo[3,4-d]pyrimidin-6-amine] | – | – | IC50 [3]: < 25 nM

Continued, in another order:

Row | IC50 [1] | IC50 [2] | Structure (SMILES) | also measured
17 | 25 to 150 nM | – | CS(=O)(=O)c1ccc(Nc2ncc3cnn(CC4CCCCC4)c3n2)cc1 [Compound 12, 1-(cyclohexylmethyl)-N-(4-(methylsulfonyl)phenyl)-1H-pyrazolo[3,4-d]pyrimidin-6-amine] | –
18 | 25 to 150 nM | – | CS(=O)(=O)c1ccc(Nc2ncc3cnn(C[C@H]4CC[C@@H](N)CC4)c3n2)cc1 [Compound 6, 1-(((1S,4S)-4-aminocyclohexyl)methyl)-N-(4-(methylsulfonyl)phenyl)-1H-pyrazolo[3,4-d]pyrimidin-6-amine] | –
19 | 25 to 150 nM | – | CS(=O)(=O)c1ccc(Nc2ncc3cnn(CC4CCC(N5CCCC5)CC4)c3n2)cc1 (single isomer, unassigned; stereoisomer a) [Compound 58, N-(4-(methylsulfonyl)phenyl)-1-((4-(pyrrolidin-1-yl)cyclohexyl)methyl)-1H-pyrazolo[3,4-d]pyrimidin-6-amine (stereoisomer A)] | –
20 | 25 to 150 nM | – | CS(=O)(=O)c1ccc(Nc2ncc3cnn([C@H]4CC[C@H](O)CC4)c3n2)cc1 (single isomer, unassigned) [Compound 54] | –
21 | – | > 150 nM | CN(CCO)[C@H]1CC[C@H](Cn2ncc3cnc(Nc4ccc(S(C)(=O)=O)cc4)nc32)CC1 [Compound 84, 2-(methyl((1r,4r)-4-((6-((4-(methylsulfonyl)phenyl)amino)-1H-pyrazolo[3,4-d]pyrimidin-1-yl)methyl)cyclohexyl)amino)ethan-1-ol] | –
22 | – | > 150 nM | CS(=O)(=O)c1ccc(Nc2ncc3cnn(CC4CCC(N5CC[C@H](C#N)C5)CC4)c3n2)cc1 (single isomer, unassigned; stereoisomer a) [Compound 69] | –
23 | – | > 150 nM | CS(=O)(=O)c1ccc(Nc2ncc3cnn(CC4CCC(N5CC[C@H](O)C5)CC4)c3n2)cc1 (single isomer, unassigned; stereoisomer a) [Compound 74] | –
24 | – | > 150 nM | CS(=O)(=O)c1ccc(Nc2ncc3cnn(C[C@H]4CC[C@@H](C(=O)Oc5ccc(F)cc5)CC4)c3n2)cc1 [Compound 18, 4-Fluorophenyl (1s,4s)-4-((6-((4-(methylsulfonyl)phenyl)amino)-1H-pyrazolo[3,4-d]pyrimidin-1-yl)methyl)cyclohexane-1-carboxylate] | –
25 | 25 to 150 nM | – | CS(=O)(=O)c1ccc(Nc2ncc3cnn(CC4CCC(C#N)CC4)c3n2)cc1 (single isomer, unassigned) [Compound 28, 4-((6-((4-(methylsulfonyl)phenyl)amino)-1H-pyrazolo[3,4-d]pyrimidin-1-yl)methyl)cyclohexane-1-carbonitrile] | –
26 | – | > 150 nM | CS(=O)(=O)c1ccc(Nc2ncc3cnn(CC4CCC(N5CCC5)CC4)c3n2)cc1 (single isomer, unassigned; stereoisomer a) [Compound 60, 1-((4-(azetidin-1-yl)cyclohexyl)methyl)-N-(4-(methylsulfonyl)phenyl)-1H-pyrazolo[3,4-d]pyrimidin-6-amine (stereoisomer A)] | –
27 | – | > 150 nM | CS(=O)(=O)c1ccc(Nc2ncc3cnn(C[C@H]4CC[C@H](CCl)CC4)c3n2)cc1 [Compound 48, 1-(((1R,4R)-4-(chloromethyl)cyclohexyl)methyl)-N-(4-(methylsulfonyl)phenyl)-1H-pyrazolo[3,4-d]pyrimidin-6-amine] | –
28 | 25 to 150 nM | – | CN(C)[C@H]1CC[C@@H](Cn2ncc3cnc(Nc4ccc(S(C)(=O)=O)cc4)nc32)CC1 [Compound 40, 1-(((1s,4s)-4-(dimethylamino)cyclohexyl)methyl)-N-(4-(methylsulfonyl)phenyl)-1H-pyrazolo[3,4-d]pyrimidin-6-amine formate] | –
29 | 25 to 150 nM | – | CS(=O)(=O)c1ccc(Nc2ncc3cnn(CC4CCCC4)c3n2)cc1 [Compound 13, 1-(cyclopentylmethyl)-N-(4-(methylsulfonyl)phenyl)-1H-pyrazolo[3,4-d]pyrimidin-6-amine] | –
30 | – | > 150 nM | CS(=O)(=O)c1ccc(Nc2ncc3cnn(CC4CCC(N5CCCC5)CC4)c3n2)cc1 (single isomer, unassigned; stereoisomer b) [Compound 59, N-(4-(methylsulfonyl)phenyl)-1-((4-(pyrrolidin-1-yl)cyclohexyl)methyl)-1H-pyrazolo[3,4-d]pyrimidin-6-amine (stereoisomer B)] | –
